Experimental data: ChEMBL document CHEMBL3739407, “Synthesis and SAR of Imidazo[1,5-a]pyridine derivatives as 5-HT4 receptor partial agonists for the treatment of cognitive disorders associated with Alzheimer's disease” (Eur J Med Chem, 2015)

Key:
[1] = Oral bioavailability in Wistar rat at 10 mg/kg; assay type: ADME, organism-based; conditions: in vivo
[2] = Volume of distribution at steady state in Wistar rat at 10 mg/kg, po and 5 mg/kg, iv by LC-MS analysis; assay type: ADME, organism-based; conditions: in vivo, read-out: Vdss
[3] = Cmax in Wistar rat at 10 mg/kg, po and 5 mg/kg, iv; assay type: ADME, organism-based; conditions: in vivo
[4] = Ratio of drug level in brain to plasma in Wistar rat at 10 mg/kg, po and 5 mg/kg, iv; assay type: ADME, organism-based; conditions: read-out: BPR
[5] = AUC (0 to t) in beagle dog at 1 mg/kg, iv administered as 5 mins infusion; assay type: ADME, organism-based, Canis lupus familiaris; conditions: in vivo
[6] = Oral bioavailability in Wistar rat at 3 mg/kg; assay type: ADME, organism-based; conditions: in vivo
[7] = AUC (0 to t) in Wistar rat at 1 mg/kg, iv; assay type: ADME, organism-based; conditions: in vivo
[8] = Apparent volume of distribution in Wistar rat at 1 mg/kg, iv; assay type: ADME, organism-based; conditions: in vivo, read-out: Vd(app)
[9] = Tmax in Wistar rat at 3 mg/kg, po; assay type: ADME, organism-based; conditions: in vivo
[10] = AUC (0 to t) in Wistar rat at 3 mg/kg, po; assay type: ADME, organism-based; conditions: in vivo
[11] = Oral bioavailability in beagle dog at 1 mg/kg; assay type: ADME, organism-based, Canis lupus familiaris; conditions: in vivo
[12] = Cmax in beagle dog at 1 mg/kg, po; assay type: ADME, organism-based, Canis lupus familiaris; parameters: dose 1 mg/kg, route oral; conditions: in vivo
[13] = Apparent volume of distribution in beagle dog at 1 mg/kg, iv administered as 5 mins infusion; assay type: ADME, organism-based, Canis lupus familiaris; conditions: in vivo, read-out: Vd(app)
[14] = Tmax in beagle dog at 1 mg/kg, po; assay type: ADME, organism-based, Canis lupus familiaris; conditions: in vivo
[15] = Apparent permeability of the compound in human Caco2 cells; assay type: ADME, cell-based; conditions: Caco-2
[16] = AUC (0 to t) in beagle dog at 1 mg/kg, po; assay type: ADME, organism-based, Canis lupus familiaris; conditions: in vivo
[17] = Cmax in Wistar rat at 3 mg/kg, po; assay type: ADME, organism-based; parameters: dose 3 mg/kg, route oral; conditions: in vivo

| bioavailability [1] [%] | Vd [2] [L/kg] | Cmax [3] [µg/mL] | Kp [4] | Compound | other results |
| --- | --- | --- | --- | --- | --- |
| 3.7 | 5.3 | 0.074 |  | CC(C)c1nc(C(=O)NC2CCN(CC3CC3)CC2)c2ccccn12 |  |
| 10 | 4.7 | 0.166 |  | CC(C)c1nc(C(=O)NC2CCN(C(C)C)CC2)c2ccccn12 |  |
| 17 | 10.4 | 0.12 | 0.6 | CC(C)c1nc(C(=O)NC[C@@H]2[C@H]3CN(CC4CCOCC4)C[C@@H]23)c2ccccn12 |  |
| 26 | 3.7 | 0.188 | 0.31 | COCCCN1C[C@@H]2[C@@H](CNC(=O)c3nc(C(C)C)n4ccccc34)[C@@H]2C1 | AUC(0-t) at 5 min [5]: 1.31 µg·h/mL; bioavailability [6]: 26%; AUC(0-t) [7]: 0.389 µg·h/mL; Vd [8]: 3.7 L/kg; Tmax [9]: 15 min; AUC(0-t) [10]: 0.301 µg·h/mL; bioavailability [11]: 94%; Cmax [12]: 0.412 µg/mL; Vd [13]: 2.1 L/kg; Tmax [14]: 30 min; Papp [15]: 348 nm/s; AUC(0-t) [16]: 1.22 µg·h/mL; Cmax [17]: 0.188 µg/mL |
| 12 | 3.3 | 0.15 | 0.69 | COC(=O)N1CCC(CN2C[C@@H]3[C@@H](CNC(=O)c4nc(C(C)C)n5ccccc45)[C@@H]3C2)CC1 |  |
| 63 | 4.7 | 0.434 | 0.38 | CC(C)c1nc(C(=O)NC2CCN(CC3(O)CCOCC3)CC2)c2ccccn12 |  |
| 5 | 7.6 | 0.08 | 0.14 | CC(C)c1nc(C(=O)NC[C@@H]2[C@H]3CN(C(C)C)C[C@@H]23)c2ccccn12 |  |
| 98 | 4.6 | 1.76 | 0.31 | CC(C)c1nc(C(=O)NC2CCN(C3CCOCC3)CC2)c2ccccn12 |  |
| 34 | 3.8 | 0.277 | 0.31 | CC(C)c1nc(C(=O)NC[C@@H]2[C@H]3CN(CC(C)(C)O)C[C@@H]23)c2ccccn12 |  |
| 1.5 | 4.9 | 0.0081 | 0.38 | CC(C)c1nc(C(=O)NC[C@@H]2[C@H]3CN(CC(C)(C)F)C[C@@H]23)c2ccccn12 |  |
| 45 | 4 | 0.232 | 0.31 | CC(C)c1nc(C(=O)NCC2CCN(CC3CCOCC3)CC2)c2ccccn12 |  |
| 44 | 4.9 | 0.848 | 0.31 | COCCCN1CCC(NC(=O)c2nc(C(C)C)n3ccccc23)CC1 |  |
| 30 | 5.2 | 0.109 | 0.22 | COCCCN1CCC(CNC(=O)c2nc(C(C)C)n3ccccc23)CC1 |  |

| Compound | bioavailability [1] [%] | Vd [2] [L/kg] | Cmax [3] [µg/mL] | Kp [4] | other results |
| --- | --- | --- | --- | --- | --- |
| CC(C)c1nc(C(=O)NC2CCN(CCF)CC2)c2ccccn12 | 11 | 2.9 | 0.099 | 1.46 |  |
